The format of data set [1] is in vivo, human. Particulars: for CL/F, based on net COHb: intra-operative. The method, then:
(§1) Study subjects receive either (i) 12-48 hours post-operatively following renal transplant, a single dose of placebo (i.e., O2 30% in nitrogen) or carbon monoxide (Covox 12 mg/L) at 0.7 mg/kg or 2 mg/kg via inhalation for a time period of 1 hour, or (ii) intra-operatively during renal transplant surgery (at the time of re-anastomosis), a dose of placebo (i.e., O2 30% in nitrogen), 2 mg/kg or 3 mg/kg carbon monoxide via inhalation for a time period of 1 hour.
COHb exposure is measured using conventional methods. For example, COHb exposure can be ascertained by measuring the amount present in venous blood using a device known as a CO-OXI meter. For both post- and intra-operative dosing regimens, dose-dependency of COHb Cmax and AUC is evaluated, the results of which are shown graphically in FIGS. 1A and 1B.

The subject of data set [2] is renal function of renal transplant recipients. As to the kind of experiment: Transplanted organ (renal) function: serum creatinine and calculated GFR. Type of data set: in vivo, human. The method, then:
as §1
Organ function is assessed in subjects using pharmacodynamic markers representing renal functions. In particular, serum creatinine (SCr) levels are measured (using conventional methods) and glomerular filtration rate (GFR) is calculated via MDRD (GFR (mL/min/1.73 m2)=175×(Scr)−1.154× (Age)−0.203×(0.742 if female)×(1.212 if African American); as described by Levey et al., “Chronic Kidney Disease Epidemiology Collaboration. Using standardized serum creatinine values in the modification of diet in renal disease study equation for estimating glomerular filtration rate,” Ann Intern Med, 145(4):247-254 (2006)).

The subject of data set [3] is renal transplant recipients. Kind of data set: Safety of carbon monoxide dosing regimens (AEs, ECG, QTc). The format is in vivo, human. The method, then: as §1
All renal transplant recipients receiving carbon monoxide up to 3 mg/kg carbon monoxide (both intra-operatively and post-operatively dosed) are evaluated for safety. […] The most sensitive organs to carbon monoxide poisoning are heart and brain. As presented herein, the relationship between carbon monoxide exposure (COHb) and cardiovascular function (i.e., QTc) at 8 hours post-treatment of subjects receiving inhaled carbon monoxide or placebo (FIG. 4) is assessed via a pharmacokinetic-pharmacodynamic (PKPD) approach. Similarly, as presented herein, the relationship between subjects receiving one of various inhaled carbon monoxide doses or placebo and key neurocognitive functions (i.e., individual digit vigilance speed (FIG. 5), numeric working memory accuracy (FIG. 6) and picture recognition (FIG. 7)) up to 24 weeks post-treatment is assessed via a pharmacokinetic-pharmacodynamic (PKPD) approach.

Data set [4] has as its system renal transplant recipients. Kind of data set: Neurocognitive functions (digit vigilance speed, numeric working memory accuracy, picture recognition). Type of data set: in vivo, human. Particulars: up to 3 mg/kg inhaled 1 hour, up to 24 weeks post-treatment. The method, then: FIG. 5, FIG. 6 and FIG. 7 illustrate the impact of carbon monoxide treatment on neurocognitive functions over 6 months in subjects receiving kidney transplants following inhalation of placebo, 0.7 mg/kg, 2 mg/kg or 3 mg/kg carbon monoxide through the evaluation of individual digit vigilance speed (FIG. 5), numeric working memory accuracy (FIG. 6) and picture recognition (FIG. 7). The CO doses were administered either 12-48 hours post-operatively following renal transplant (placebo, 0.7 mg/kg or 2 mg/kg) or intra-operatively during renal transplant surgery (placebo, 2 mg/kg or 3 mg/kg). Visit #1: Screening; Visit #4: Day 0; Visit #6: Day 1; Visit #14-16: Day 28; Visit #17-18: Follow-up Weeks 16-24. The open symbols reflect individual observations, the thin lines reflect individual trends and thick lines reflect the average trend based on linear regression. […]
All renal transplant recipients receiving carbon monoxide up to 3 mg/kg carbon monoxide (both intra-operatively and post-operatively dosed) are evaluated for safety. […] As presented herein, the relationship between carbon monoxide exposure (COHb) and cardiovascular function (i.e., QTc) at 8 hours post-treatment of subjects receiving inhaled carbon monoxide or placebo (FIG. 4) is assessed via a pharmacokinetic-pharmacodynamic (PKPD) approach. […]

The conditions of data set [5]: water at 0° C.; cited from earlier work.

Entries after “also recorded” stand apart in the source; their conditions may differ. Like-named read-outs stand apart in the source and are kept apart here. Marks after values point to notes of the source that are not given here.

On to `[C-]#[O+]` [carbon monoxide], for which the “CL/F, based on net COHb” value in data set [1] (2.0 mg/kg, mean (n=6)) is 0.0474 mg/kg/(% * h); in data set [1] (3.0 mg/kg, mean (n=5)) it was 0.0549 mg/kg/(% * h). For the same compound, in data set [1] (post- and intra-operative regimens, 0.7-3 mg/kg, FIGS. 1A and 1B), the “dose-dependency of COHb Cmax and AUC (% COHb/Hb)” value was “increased with an increase in the dose of inhaled carbon monoxide in an approximately proportional manner”. Further, the “renal function (GFR and Scr)” value is “does not improve renal function” in data set [2] (given 12-48 hours after the surgery, 0.7 or 2 mg/kg) and “improves renal function in a dose-dependent manner” in data set [2] (given during surgery (intra-operatively), 2 or 3 mg/kg). Also, the “calculated GFR on Day 1 and Day 2 versus COHb concentration” value in data set [2] (intra-operatively treated subjects, FIG. 2 left panel) is on record as “increased COHb is related to improved renal function (GFR)”; in data set [2] (post-operatively treated subjects, FIG. 2 right panel) it was “increased COHb is not related to the improvement of GFR”. In addition, the “serum creatinine level on Day 2 versus COHb concentration” value in data set [2] (intra-operatively treated subjects, FIG. 3 left panel) is listed as “increased COHb is related to improved renal function (decreased serum creatinine)”; in data set [2] (post-operatively treated subjects, FIG. 3 right panel), “increased COHb did not improve the renal function (increased serum creatinine)”. For the same compound, the “QT prolongation (QTc change from baseline versus COHb)” value in data set [3] (8 hours after inhalation, up to 3 mg/kg for 1 hour) is “does not have an effect on QT prolongation; also recorded: unlikely to cause QT prolongation”. In addition, the tolerability entry in data set [3] (all dose levels up to 3 mg/kg, intra- and post-operatively dosed) is on record as “well tolerated”. Also, the ECG changes entry in data set [3] (up to 3 mg/kg) was “no ECG changes observed on heart rate, PR interval, QRS duration or QTcF duration”. The “new morphological changes or new infarction potentials” value in data set [3] (up to 3 mg/kg) is reported as “no evidence observed on new morphological changes or new infarction potentials”. In data set [3] (up to 3 mg/kg, versus placebo), the “incidence of cardiovascular and neurological AEs” value is “comparable between CO and placebo treated subjects”. The “impact on neurocognitive functions” value in data set [4] was “does not have negative impact on neurocognitive functions; also recorded: unlikely to cause QT prolongation and affect neurocognitive functions”; in data set [4] (listed as CO) it was “does not show any negative impact on neurocognitive functions”. The saturation point result in data set [5] is “about 0.0044 g CO/100 g medium”.

Values taken from patent publication US8778413B2, “Dosing regimens and methods of treatment using carbon monoxide” (Ikaria, Inc., priority 2010, dated 2014).
